# Experimental data from PubChem BioAssay (NCI).
#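 GI50 marks 50% less growth. TGI denotes the concentration required for complete inhibition of growth.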
# Key:
# Test in all cases: NCI tumour cell line growth inhibition, 384-well format
# [1] = system: HCT-116 colon
# [2] = system: NCI-H522 lung
# [3] = system: NCI-H460 NSCLC
# [4] = system: SR leukemia
# [5] = system: OVCAR-4 ovarian
# [6] = system: SF-268 CNS
# [7] = system: NCI/ADR-RES ovarian
# [8] = system: MOLT-4 leukemia
# [9] = system: A549 NSCLC
# [10] = system: HT29 colon
# [11] = system: OVCAR-3 ovarian
# [12] = system: SNB-19 CNS
# [13] = system: UACC-257 melanoma
smiles,measurement,setting,value
C1=C/COCc2cc(ccc2OCCN2CCCC2)Nc2nccc(n2)-c2cccc(c2)COC/1,GI50,[1],692 nM
same,TGI,[1],2360 nM
same,GI50,[2],1450 nM
same,TGI,[2],2780 nM
same,GI50,[3],923 nM
same,TGI,[3],2220 nM
same,GI50,[4],152 nM
same,TGI,[4],303 nM
same,GI50,[5],1760 nM
same,TGI,[5],3610 nM
same,GI50,[6],865 nM
same,TGI,[6],2100 nM
same,GI50,[7],1910 nM
same,TGI,[7],3990 nM
same,GI50,[8],563 nM
same,TGI,[8],1290 nM
same,GI50,[9],1460 nM
same,TGI,[9],3490 nM
same,GI50,[10],1340 nM
same,TGI,[10],2670 nM
same,GI50,[11],988 nM
same,TGI,[11],2270 nM
same,GI50,[12],2330 nM
same,TGI,[12],6910 nM
same,GI50,[13],649 nM
same,TGI,[13],1410 nM
